What was measured:
[1] = tested on: MV-4-11 xenograft; assay: Anti-tumor efficacy in subcutaneous MV-4-11 xenograft model; assay type: in vivo, female BALB/c nude mice; details: i.v.; GFH009 maleate 2.5, 5.0, 10.0 mg/kg QW or BIW; enitociclib 10.0 mg/kg QW; 3 weeks
Experimental: Figure 6 Anti-tumor efficacy of GFH009 in MV-4-11 xenograft model. MV-4-11 xenograft in female BALB/c nude mice were treated with GFH009 or enitociclib at the indicated doses (n = 8 mice per group). Results are expressed as mean ± SEM. ^* P < 0.05, ^**** P < 0.0001, two-way ANOVA with Dunnett’s multiple comparisons test analysis compared to Vehicle control group.
In vivo studies of tumor suppression were conducted in female BALB/c nude mice (Beijing Vital River Laboratory Animal Technology Co, Ltd., Changping, Beijing, China) bearing MV-4-11 xenografts (ATCC, Rockville, MD, USA). Each mouse was inoculated subcutaneously into the right dorsal-region with 5.0 × 10^6 cultured MV-4-11 cells in a total volume of 0.2 ml solution and allowed to develop xenograft tumors. Once tumor size had reached […], mice were divided into groups to receive 1 of 8 different treatment preparations dosed intravenously via the tail vein (Table 2). […] Enitociclib was administered as a 1.0 mg/mL solution in ultrapure water with 5% DMSO. Vehicle control was 50 mM PBS with no dissolved treatment drug.
(§1) Animals dosed BIW were given treatments on 2 consecutive days. Weights were recorded for each mouse every day and tumor volumes assessed 3 times a week. Total treatment administration occurred across 3 consecutive weeks.
Subcutaneous tumor volume (TV) was calculated as TV = (L × W^2)/2, where L was the length and W was the width of the tumor [11]. […] TGI was calculated as TGI (%) = (1 – avTi-0/ avCi-0)) × 100, where avTi-0 is the mean TV of the treatment group on a given day minus the mean TV of this treatment group on the day of group assignment, and avCi-0 is the mean TV of the vehicle control group on a given day minus the mean TV of the vehicle control group on the day of group assignment.
Tumor volume data was subjected to a base-10 logarithmic transformation and subsequent comparisons of TV across groups was made using two-way ANOVA (Dunnett’s multiple comparisons test). All plotting and statistical analyses were conducted using GraphPad Prism 6.00 (GraphPad Software).

[2] = Body weight change in MV-4-11 xenograft mice; assay type: in vivo, female BALB/c nude mice; details: GFH009 maleate QW or BIW; enitociclib 10.0 mg/kg QW; i.v.
Experimental: Figure 7 Effect of GFH009 on body weight change in MV-4-11 xenografts. Body weight change of MV-4-11 xenograft (Figure 6) are expressed as mean ± SEM. ^* […], ^** P < 0.01, ^**** P < 0.0001, two-way ANOVA with Dunnett’s multiple comparisons test analysis compared to the vehicle-treated (control) group.
as §1
Relative change in body weight (RCBW) was determined as RCBW (%) = (Bwi – BW0)/BW0 × 100, where Bwi is body weight of a given mouse on a given day, and BW0 is initial body weight on the day they were assigned to a treatment group.

COc1cc(F)ccc1-c1cc(Nc2cc(CS(C)(=N)=O)ccn2)ncc1F (centres unmarked) [enitociclib, reference compound]
Tumor growth (total volume) compared to the vehicle control [1]: inhibited tumor growth
Body weight of the mice during the administration period [2]: decreased dramatically
